Test [1] deals with IL-8-induced neutrophil shape change in human whole blood. Put plainly: Whole blood neutrophil shape change assay (Assay L). The class given is cell-based. To be noted: 2 nM IL-8, neutrophil shape change by flow cytometry, read-out: Assay L WBSC IC50. As to the method: Whole Blood Neutrophil Shape Change Assay (L)
A flow cytometry based method used to measure the inhibition of IL-8 (interleukin-8)-induced neutrophil shape change in human whole blood.
IL-8 was made up to 2 μM stocks in 0.1% bovine serum albumin/PBS and stored at −80° C. On the day IL-8 was diluted in PBS (phosphate buffered saline) 10 minutes before use. IL-8 was used at final concentration of 2 nM and a concentration range from […] to 200 nM for the donor dose response curve.
Assay fixative solution was prepared fresh each day from 10× concentrated CellFIX™ solution diluted 1:10 in sterile distilled water and then 1:4 with PBS. Assay fixative solution was kept on ice prior to use.
A 10× lysis buffer was prepared in advance by dissolving 20.75 g […] and 2.5 g KHCO3 in 250 ml sterile H2O. This 10× lysis buffer was filtered under sterile conditions and stored for up to two weeks at 4° C. On the day a 1× lysis solution was prepared with sterile distilled H2O and kept on ice prior to use.
The test compounds were prepared as 10 mM stock solutions in 100% DMSO and were stored at 4° C. Once in use for an assay 10 mM stock compounds were thawed and stored at RT protected from light. Compound dilutions were prepared fresh on the day. The first series of dilutions in 100% DMSO were done first thing in the morning. Only once blood had been collected and arrived in laboratory was the next set of dilutions into PBS carried out (1:10 PBS, 10% DMSO). This limited the exposure of diluted compound to plastic and made sure the exposure timing was consistent between assays. Compounds were added to the deep 96 well plates at 10× the final desired concentration (with addition of blood final [DMSO]=1%).
Table 3 illustrates the compound dilution series used in human whole blood neutrophil shape change assay.
On the day of running the assay, assay fixative buffer and 1× lysis solutions were prepared and stored on ice. Compound dilutions in 100% DMSO were prepared as described previously. Human whole blood was collected in K2 EDTA Vacutainers. Once blood was in the laboratory, compound dilutions into PBS were carried out as described previously and depicted in Table 1. 10 μl of 10× final compound concentration was added to appropriate wells of a deep 96-well plate except controls where 10 μl of 10% DMSO was added in place of compound, as outlined in the dilution series in Table 1. The outer wells of the deep well assay plate were filled with 1200 μl of sterile distilled H2O in an effort to limit edge effects (rows A1-H1, A1-A12, A12-H12). An IL-8 dose response was determined for each blood donor examined, to monitor the donor response to IL-8. At this step in assay preparation for the IL-8 dose response samples 10 μl of PBS was added to designated wells. In addition the assay window without DMSO was also assessed each day. For such samples at this step in assay preparation 10 μl of PBS was added in the place of 10% DMSO.
80 μl of whole blood was added to compound/10% DMSO/PBS and mixed once gently upon addition. Lids were placed on the 96 well plates and samples were incubated for 15 minutes at 37° C. in a water-bath.
Following the compound pre-incubation 10× final IL-8 was added to appropriate wells (10 μl of 20 nM working stock IL-8, final IL-8 concentration in blood=2 nM) and 10 μl of PBS was added to the un-stimulated controls. 10× final dose response range IL-8 was also added to designated wells (final concentration range on assay plate was 200 nM to 0.0005 nM, 1:5 serial dilution in PBS). The IL-8 and PBS were added to appropriate wells across all assay plates in the same sequence as the blood to compound addition. Once added to all assay plates, samples were mixed quickly once to ensure even distribution of IL-8. Samples were incubated for 5 minutes at 37° C. in a water-bath. Following the incubation sample plates were transferred to ice where 250 μl of chilled Assay Fixative Buffer was added promptly to all wells. […]
Background: A flow cytometer gives signals particle by particle.

A further test deals with PI 3-kinase alpha (Homo sapiens (Human), UniProt P42336). Put plainly: Kinase Glo Luminescent Kinase Assay (Assay A). Type of test: biochemical. To be noted: 1 μM ATP, read-out: Assay A PI3Kα IC50. From the text:
Kinase Glo Luminescent Kinase Assay (Kglo) for PI 3-Kinase Alpha (A), Pb 3-Kinase Beta (B), Vps34 (C), PI 4-Kinase Beta (D)
The luminescence-based ATP detection reagent KinaseGlo was obtained from Promega, (Cat. No. V6714, Lot No. 236161) through Catalys, Wallisellen, Switzerland. L-alpha-phosphatidylinositol (PI, liver, bovine) was obtained from Avanti Polar Lipid (Cat. No. 840042C, Lot#LPI-274), Phosphatidylinositol-4,5-bisphosphate (PIP(4,5)2) was also obtained from Avanti Polar Lipid (Cat. No. 840046X). L-α-Phosphatidylserine (PS) was obtained from Avanti Polar Lipid (Cat. No. 840032C), n-Octylglucoside from Avanti Polar Lipid (Cat. No. 10634425001). Luminescence is a well established readout to determine ATP concentrations and can thus be used to follow the activity of many kinases regardless of their substrate. The Kinase Glo Luminescent Kinase Assay (Promega, Madison/WI, USA) is a homogeneous HTS method of measuring kinase activity by quantifying the amount of ATP remaining in solution following a kinase reaction.
50 nL of compound dilutions were dispensed onto black 384-well low volume Non Binding Styrene (NBS) plates (Costar Cat. No. NBS#3676). L-α-phosphatidylinositol (PI), provided as 10 mg/ml solution in methanol, was transferred into a glass tube and dried under a nitrogen beam. It was then resuspended in 3% OctylGlucoside (1-O-n-octyl-beta-D-glucopyranoside) by vortexing and stored at 4° C. 5 μL of a mix of PI/OctylGlucoside with the PI 3-kinase alpha and PI 3-kinase beta subtypes, or Vps34 or PI 4-kinase beta were added. Kinase reactions were started by the addition of 5 μl of an ATP-mix containing in a final volume 10 μL 10 mM TRIS-HCl pH 7.5, 3 mM MgCl2, 50 mM NaCl, 0.05% CHAPS, 1 mM DTT and 1 μM ATP at room temperature. Reactions were stopped with 10 μl of KinaseGlo and plates were read 10 mins later in a Synergy2 reader using an integration time of 0.1 seconds per well. 2.5 μM of NVP-BGT226 (1-(3-(trifluoromethyl)-4-(piperazin-1-yl)phenyl)-8-(6-methoxypyridin-3-yl)-3-methyl-1H-imidazo[4,5-c]quinolin-2(3H)-one) was added to the assay plates to generate the 100% inhibition of the kinase reaction, and the 0% inhibition was given by the solvent vehicle (90% DMSO in water). (1-(3-(trifluoromethyl)-4-(piperazin-1-yl)phenyl)-8-(6-methoxypyridin-3-yl)-3-methyl-1H-imidazo[4,5-c]quinolin-2(3H)-one) was used as a reference compound and included in all assay plates in the form of 16 dilution points in duplicate.
IC50 values of the percentage inhibition of each compound at 8 concentrations (10, 3.0, 1.0, 0.3, 0.1, 0.030, 0.010 and 0.003 μM) n=2 were derived by fitting a sigmoidal dose-response curve to a plot of assay readout over inhibitor concentration as described. All fits were performed with the program XLfit4 (ID Business Solutions, Guildford, UK).

PI 3-kinase alpha, sequence (P42336 21-1068): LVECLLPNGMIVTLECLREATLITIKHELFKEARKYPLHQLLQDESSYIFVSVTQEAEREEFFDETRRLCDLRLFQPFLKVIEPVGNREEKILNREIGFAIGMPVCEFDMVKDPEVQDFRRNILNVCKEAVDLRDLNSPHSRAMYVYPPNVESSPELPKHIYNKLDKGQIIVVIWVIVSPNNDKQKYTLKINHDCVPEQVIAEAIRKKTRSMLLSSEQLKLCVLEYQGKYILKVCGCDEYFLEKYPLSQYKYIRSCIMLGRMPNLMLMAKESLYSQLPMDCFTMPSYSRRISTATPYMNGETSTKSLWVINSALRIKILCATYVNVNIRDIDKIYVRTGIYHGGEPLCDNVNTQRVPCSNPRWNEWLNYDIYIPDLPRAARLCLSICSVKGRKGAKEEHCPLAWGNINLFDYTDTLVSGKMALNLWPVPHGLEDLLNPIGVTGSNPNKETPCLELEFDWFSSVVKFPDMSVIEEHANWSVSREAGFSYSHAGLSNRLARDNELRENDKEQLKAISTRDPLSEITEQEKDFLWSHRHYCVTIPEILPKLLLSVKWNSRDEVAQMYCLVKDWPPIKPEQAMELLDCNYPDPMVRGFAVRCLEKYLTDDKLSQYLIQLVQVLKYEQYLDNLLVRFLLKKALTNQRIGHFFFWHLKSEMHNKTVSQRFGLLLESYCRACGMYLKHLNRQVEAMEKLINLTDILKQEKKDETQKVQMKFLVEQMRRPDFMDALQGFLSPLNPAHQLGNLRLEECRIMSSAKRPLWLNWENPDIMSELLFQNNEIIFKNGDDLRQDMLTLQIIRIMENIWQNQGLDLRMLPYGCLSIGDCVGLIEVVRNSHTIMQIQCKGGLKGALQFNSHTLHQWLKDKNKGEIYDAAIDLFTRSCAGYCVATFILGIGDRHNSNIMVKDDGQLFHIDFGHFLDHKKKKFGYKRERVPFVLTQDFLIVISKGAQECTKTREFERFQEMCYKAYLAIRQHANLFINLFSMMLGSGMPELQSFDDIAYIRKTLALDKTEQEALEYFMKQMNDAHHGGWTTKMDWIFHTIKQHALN

`Cc1ccc(S(=O)(=O)NCC2(C)COC2)cc1-c1cncc(-c2cn(C)nc2C)n1` [Example 4, Trans 3-[6-(1,3-Dimethyl-1H-pyrazol-4-yl)-pyrazin-2-yl]-4-methyl-N-(3-methyl-oxetan-3-ylmethyl)-benzenesulfonamide]: the IC50 in test [1] amounted to 548 nM; on PI 3-kinase alpha, 60 nM.
`Cc1ccc(S(=O)(=O)NCCC(C)(C)O)cc1-c1cncc(-c2cn(CCN3CCOCC3)nc2C)n1` [Example 10, N-(3-Hydroxy-3-methyl-butyl)-4-methyl-3-{6-[3-methyl-1-(2-morpholin-4-yl-ethyl)-1H-pyrazol-4-yl]-pyrazin-2-yl}-benzenesulfonamide]: the IC50 in test [1] came out at 663 nM; at PI 3-kinase alpha, 70 nM.
Turning to `Cc1ccc(S(=O)(=O)N[C@H]2CC[C@H](O)CC2)cc1-c1cncc(-c2cccnc2)n1` [Example 11, Trans N-(4-Hydroxy-cyclohexyl)-4-methyl-3-(6-pyridin-3-yl-pyrazin-2-yl)-benzenesulfonamide], the IC50 in test [1] came out at 752 nM; at PI 3-kinase alpha it was 400 nM.
Consider `Cc1ccc(S(=O)(=O)NCCC(C)(C)O)cc1-c1cncc(-c2cn(C)nc2C)n1` [Example 3, 3-[6-(1,3-Dimethyl-1H-pyrazol-4-yl)-pyrazin-2-yl]-N-(3-hydroxy-3-methyl-butyl)-4-methyl-benzenesulfonamide], for which the IC50 in test [1] stood at 1080 nM; at PI 3-kinase alpha it was 80 nM.
The like results for `Cc1ncc(-c2cncc(-c3cc(S(=O)(=O)NCCCO)ccc3C)n2)s1` [Example 1, N-(3-Hydroxy-propyl)-4-methyl-3-[6-(2-methyl-thiazol-5-yl)-pyrazin-2-yl]-benzenesulfonamide] were, in that order, 1330 nM and 190 nM.
As to `Cc1ccc(S(=O)(=O)NCC(C)(C)CO)cc1-c1cncc(-c2cn(C)nc2C)n1` [Example 8, 3-[6-(1,3-Dimethyl-1H-pyrazol-4-yl)-pyrazin-2-yl]-N-(3-hydroxy-2,2-dimethyl-propyl)-4-methyl-benzenesulfonamide], the figures for the IC50 (in test [1]; at PI 3-kinase alpha) were 625 nM and 60 nM, respectively.
For the molecule `Cc1ncc(-c2cncc(-c3cc(S(=O)(=O)N[C@H]4CC[C@H](O)CC4)ccc3C)n2)s1` [Example 5, Trans N-(4-Hydroxycyclohexyl)-4-methyl-3-(6-(2-methylthiazol-5-yl)pyrazin-2-yl)benzenesulfonamide], the IC50 was 179 nM in test [1] and 150 nM on PI 3-kinase alpha.
Take `Cc1ccc(S(=O)(=O)NCC(C)(C)O)cc1-c1cncc(-c2cn(C)nc2C)n1` [Example 2, 3-[6-(1,3-Dimethyl-1H-pyrazol-4-yl)-pyrazin-2-yl]-N-(2-hydroxy-2-methyl-propyl)-4-methyl-benzenesulfonamide]: the IC50 in test [1] was 266 nM; on PI 3-kinase alpha, 50 nM.
For `Cc1ccc(S(=O)(=O)NCCC(C)(C)O)cc1-c1cncc(-c2cnn(CCN3CCOCC3)c2)n1` [Example 9, N-(3-Hydroxy-3-methyl-butyl)-4-methyl-3-{6-[1-(2-morpholin-4-yl-ethyl)-1H-pyrazol-4-yl]-pyrazin-2-yl}-benzenesulfonamide], the results for the IC50 (in test [1]; on PI 3-kinase alpha) were 598 nM and 260 nM, respectively.

A word on the IC50: it is the point on the concentration scale where inhibition reaches its midpoint.

The values are drawn from patent US9862711B2, “Pyrazine derivatives as phosphatidylinositol 3-kinase inhibitors” (NOVARTIS AG, priority 2014, dated 2018).
